Among the data in PubChem BioAssay (NCI) are TGI and GI50 values, retold here.

Test systems include CAKI-1 renal; HT29 colon; NCI-H522 lung; COLO 205 colon; SF-268 CNS; MALME-3M melanoma; KM12 colon; ACHN renal; BT-549 breast.
Experiment in all cases: NCI-60 cell line screen, 48 h

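Where inhibition never reached the appropriate level, the endpoint shown equals the highest concentration tested. Otherwise, values were interpolated linearly from a five-concentration, 48-hour dose response in 96-well plates. Here, GI50 denotes the concentration required for 50% inhibition of growth. TGI is the concentration that stops growth completely.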 Where a SMILES comes first, the peptide text is derived from it. Bridges are numbered along the chain shown (N, C = ends). Roman numbers before positions name the chains, in order. [ ]: non-standard residue; d: D form. The star is where a group is joined. Quinoxaline2carbonyl = O=C(c1cnc2ccccc2n1)*; NMeV = CN[CH](C(=O)O)C(C)C; NMeC = CN[CH](CS)C(=O)O

For the compound `CNS(=O)(=O)NNS(=O)(=O)c1ccc(Cl)cc1`, the TGI in the test on CAKI-1 renal, with HT29 colon, in the test on NCI-H522 lung, in the test on COLO 205 colon, in the test with SF-268 CNS and in the test with MALME-3M melanoma was above 100 µM in each case. Moreover, the TGI with KM12 colon and with ACHN renal was above 100 µM throughout.
For the compound `CC1NC(=O)C(NC(=O)c2cnc3ccccc3n2)COC(=O)C(C(C)C)N(C)C(=O)C2CSSCC(C(=O)N(C)C(C(C)C)C(=O)OCC(NC(=O)c3cnc4ccccc4n3)C(=O)NC(C)C(=O)N2C)N(C)C1=O` (centres undefined) (I: Quinoxaline2carbonyl-SA[NMeC][NMeV] / II: Quinoxaline2carbonyl-SA[NMeC][NMeV]; ester I:1-II:C, I:C-II:1; disulfide I:3-II:3; configuration not given here), the TGI in the test on CAKI-1 renal was above 48.7 µM; in the test on NCI-H522 lung, below 0.01 µM; with BT-549 breast, below 10 nM; with SF-268 CNS, 0.0641 µM; in the test on MALME-3M melanoma, below 0.01 µM; with KM12 colon, 3.17 µM. The compound further gave a TGI in the test on ACHN renal of 11.9 µM.
Consider `O=C(O)/C(Cl)=C(\Cl)C(=O)Nc1ccc(Cl)c(Cl)c1Cl`, for which the TGI with CAKI-1 renal is 32 µM; in the test with HT29 colon it was 39.9 µM; in the test on NCI-H522 lung, 23.7 µM; in the test on COLO 205 colon, 34.8 µM; in the test on SF-268 CNS, 42.8 µM; in the test with MALME-3M melanoma, 34.9 µM. In addition, the TGI was 36.6 µM with KM12 colon and 32 µM in the test with ACHN renal.
In the case of `COC(=O)C(C)(C)N=CN(C)C`, the TGI in the test with CAKI-1 renal, with HT29 colon, in the test on NCI-H522 lung, in the test with COLO 205 colon, in the test on SF-268 CNS and in the test with MALME-3M melanoma was above 100 µM throughout. Moreover, the TGI with KM12 colon and in the test with ACHN renal was above 100 µM in each case.
On to `CC1CN1c1c(C(=O)/C=C/c2ccccc2)c(-c2ccccc2)nn(C)c1=O` (centres undefined), for which the TGI in the test on CAKI-1 renal is 81.7 µM; in the test on HT29 colon, 29.4 µM; in the test with NCI-H522 lung, 26.2 µM; in the test with COLO 205 colon it was 29.7 µM; in the test on SF-268 CNS, 56.2 µM; with MALME-3M melanoma, 34.9 µM. Further, the TGI came out at 44.2 µM in the test on KM12 colon and 33.7 µM in the test on ACHN renal.
On to `Cc1cc2c(c(C(=O)O)c1C)-c1cccc(F)c1C2=O`, for which the TGI with CAKI-1 renal, in the test on HT29 colon, with NCI-H522 lung, with COLO 205 colon, with SF-268 CNS and in the test with MALME-3M melanoma was above 100 µM each time. The TGI in the test with KM12 colon and in the test on ACHN renal was above 100 µM in each case.
`CC1(C)C2CCC13CS(=O)(=O)N1O[C@]13C(=O)O2` (some centres undefined): the TGI in the test with HT29 colon, in the test on NCI-H522 lung, in the test on COLO 205 colon, in the test with SF-268 CNS, with MALME-3M melanoma and with KM12 colon was above 100 µM throughout. For the same compound, in the test on ACHN renal, the TGI is above 100 µM.
Regarding `CCOC(=O)C(=O)Nc1cc(Cl)ccc1Cl`, the TGI in the test on CAKI-1 renal, in the test with HT29 colon, in the test with NCI-H522 lung, with COLO 205 colon, with SF-268 CNS and in the test with MALME-3M melanoma was above 100 µM in each case. For the same compound, the TGI with KM12 colon and in the test with ACHN renal was above 100 µM in each case.
For `CN(C)c1ccc(/C=C2\C=Cc3ccccc32)cc1`, the TGI was above 100 µM in the test on CAKI-1 renal; above 100 µM in the test on HT29 colon; 52.3 µM with NCI-H522 lung; above 100 µM in the test with COLO 205 colon; above 100 µM in the test on SF-268 CNS; above 100 µM in the test with MALME-3M melanoma. For the same compound, the TGI in the test on KM12 colon and in the test on ACHN renal was above 100 µM each time.
With `CCCCCCN(N)C(=O)CC#N`, the TGI in the test on CAKI-1 renal, in the test on HT29 colon, with NCI-H522 lung, with COLO 205 colon, in the test with SF-268 CNS and in the test with MALME-3M melanoma was above 100 µM each time. In addition, the TGI in the test on KM12 colon and in the test with ACHN renal was above 100 µM each time.
For `CC(C)c1c2[nH]c3ccccc3c2c(C(C)C)c2[nH]c3ccccc3c12`, the TGI in the test on CAKI-1 renal, with HT29 colon, in the test on NCI-H522 lung, in the test on COLO 205 colon, in the test with SF-268 CNS and in the test on MALME-3M melanoma was above 100 µM in each case. The TGI in the test on KM12 colon and in the test with ACHN renal was above 100 µM throughout.
Take `COc1cc2nc(NCCCCCNC(=O)c3ccco3)nc(N)c2cc1OC`: the TGI is above 100 µM in the test on CAKI-1 renal; above 100 µM in the test with HT29 colon; 96.4 µM in the test with NCI-H522 lung; 38.2 µM in the test on COLO 205 colon; above 100 µM with SF-268 CNS; 33.3 µM in the test with MALME-3M melanoma. Further, the results for the TGI with KM12 colon and with ACHN renal were 62.4 µM and above 100 µM, respectively.
With `N#Cc1ccc(N=Cc2c([O-])ccc3ccccc23)cc1.[C-]#[O+].[C-]#[O+].[Ir]`, the GI50 in the test on CAKI-1 renal is 2920 nM; in the test with HT29 colon, 17.6 µM; in the test on NCI-H522 lung, 1130 nM; in the test with COLO 205 colon, 1960 nM; with SF-268 CNS, 14.8 µM; in the test with MALME-3M melanoma, 4.42 µM. In addition, the results for the GI50 in the test with KM12 colon and in the test on ACHN renal were 16.6 µM and 6.32 µM, respectively. For the same compound, the TGI in the test with CAKI-1 renal is 6.26 µM; in the test on HT29 colon it was 42.3 µM; in the test on NCI-H522 lung it was 2.45 µM; in the test with COLO 205 colon, 4 µM; in the test with SF-268 CNS, 29.2 µM; in the test on MALME-3M melanoma, 15.1 µM. The TGI in the test on KM12 colon came out at 30.2 µM; in the test on ACHN renal it was 18.7 µM.
On to `CCCCCCCCCCCCCP(=O)(O)NCC(N)=O`, for which the TGI in the test on HT29 colon was above 100 µM; in the test on NCI-H522 lung, 86.2 µM; with COLO 205 colon, above 100 µM; in the test with SF-268 CNS, above 100 µM; in the test on MALME-3M melanoma, above 100 µM; in the test on KM12 colon, above 100 µM. This compound also yielded a TGI in the test on ACHN renal above 100 µM.
With `COC(CN1C=C(Sc2ccccc2)CC1)OC`, the TGI in the test with CAKI-1 renal was above 100 µM; in the test on HT29 colon, 54.2 µM; in the test on COLO 205 colon, 47.4 µM; with SF-268 CNS, above 100 µM; in the test with MALME-3M melanoma, above 100 µM; in the test on KM12 colon it was 67.8 µM. In addition, the TGI in the test with ACHN renal is above 100 µM.
